Consider 2 compounds from ChEMBL document CHEMBL1148834, “A novel diketo phosphonic acid that exhibits specific, strand-transfer inhibition of HIV integrase and anti-HIV activity” (Bioorg Med Chem Lett, 2007).

The test system of data set [1] is Human immunodeficiency virus 1. The experiment in a line: Antiviral activity against HIV1 TEK1 in PBMC. The format is functional, organism-based. To be noted: Human immunodeficiency virus 1, TEK1.
A short description of data set [2]: Therapeutic index, ratio of CC50 for PBMC to IC50 for HIV1 TEK1. To be noted: read-out: Ratio CC50/IC50.
Data set [3] can be described thus: Cytotoxicity against PBMC cells. The format is cell-based. To be noted: human.
The subject of data set [4] is Human immunodeficiency virus 1. The experiment in a line: Antiviral activity against HIV1 NL4-3 in PBMC. The format is functional, organism-based. To be noted: Human immunodeficiency virus 1, NL4-3.
Data set [5] can be described thus: Therapeutic index, ratio of CC50 for PBMC to IC50 for HIV1 NL4-3. To be noted: read-out: Ratio CC50/IC50.
Data set [6] can be described thus: Inhibition of HIV integrase 3'-processing activity by magnesium chloride-based assay. Also noted: species or system Human immunodeficiency virus.
A short description of data set [7]: Inhibition of HIV integrase strand transfer activity by magnesium chloride-based assay. More on the design: species or system Human immunodeficiency virus.

The structures appear in SMILES notation.

On to `O=C(/C=C(\O)P(=O)(O)O)c1cc(OCc2ccccc2)cc(OCc2ccccc2)c1`, for which the IC50 (in general, the concentration that gives 50% inhibition) was determined as 8.1 µM in data set [1] and 11.8 µM in data set [4]. For the same compound, the selectivity ratio in data set [2] was determined as 5.8; in data set [5], 4. Further, the CC50 (in general, the concentration that lowers cell viability or growth by half) in data set [3] worked out at 46.9 µM.
`O=C(/C=C(\O)P(=O)(O)O)c1cn(Cc2ccccc2)c(=O)n(Cc2ccccc2)c1=O`: the IC50 in data set [1] is 4 µM; in data set [6] it was > 333 µM; in data set [4] it was 3.2 µM; in data set [7], 20.2 µM. Also, the selectivity ratio in data set [2] was > 50; in data set [5] it was > 62. Also, the CC50 in data set [3] is > 200 µM.
